Measured values published in publication PMC8966664 (Frontiers in Pharmacology, 2022).

Assays:
RTS-induced liver damage = test: Histological examination (H&E) and scoring of liver damage, modified DeLeve's system; assay type: in vivo, Sprague Dawley rats; parameters: key to Central vein endothelial damage / Sinusoidal hemorrhage / Sinusoidal dilation / Coagulative necrosis / Apoptotic bodies / Subendothelial fibrosis / Sinusoid fibrosis / Subendothelial hemorrhage: 0-absent; 1-mild; 2-moderate; 3-severe; details: rats
Procedure: (§1) EX and GA were dissolved in distilled water at 37°C for oral administration with the dosage of EX and GA as 500 mg/kg and 50 mg/kg. […] RTS was given following the last dose of distilled water/GA/EX. Detailed dosage regimens are described in Supplementary Figure S2. All rats were sacrificed at 48 h after the last dosing. Serum and liver samples were collected and stored at −80°C until use.
The largest lobe of the liver was sliced, fixed in 10% buffered-neutral formalin for 24 h, and embedded in wax. Sections of 5 µm in thickness were subjected to hematoxylin and eosin staining before being examined. Liver injury (necrosis, endothelial cell damage, and hemorrhage) was evaluated with a LEICA DM5000B Microscope (Leica, Heidelberg, Germany).
Protective effects of EX and GA on RTS-induced hepatotoxicity were also evaluated by histopathological examination. […] The damage of sinusoidal endothelial cells was further measured by the immunofluorescence of RECA-1. […] The degrees of hemorrhage, sinusoidal dilation, and necrosis were assessed and scored (Table 2) according to a modified DeLeve’s system ([Deleve et al., 1999]) as summarized in Supplementary Table S3.

pyrrole-protein adducts [1] = test: Formation of pyrrole-protein adducts in liver and serum/plasma of RTS-treated rats; assay type: in vivo, Sprague Dawley rats
Procedure: as §1
The pyrrole-protein adducts were measured according to our previously developed method ([Lin et al., 2011]; [Ruan et al., 2014]). Briefly, 50 mg liver or 100 µL serum/plasma was mixed with acetone and centrifuged at 900 x g for 10 min. The precipitated protein was treated with silver nitrate (20 mg/ml) in ethanol containing 5% trifluoroacetic acid to release pyrrole moiety from the pyrrole-protein adducts. After centrifugation, an aliquot of the supernatant was incubated with 4-dimethylaminobenzaldehyde (20 mg/ml) at 56°C for 10 min. The mixture was filtered and subjected to LC-MS/MS analysis. 7,9-diGS-DHP was used as a standard with a concentration ranging from 0.2 to 2000 nM and underwent the same preparation process to construct a calibration curve. […] After centrifuging at 20,000 x g for 30 min, the supernatants were collected and analyzed by LC-MS/MS according to our previously developed methods ([Ma et al., 2019]; [He et al., 2021a]; [Ma et al., 2021]).
The LC-MS/MS analysis was performed on an Agilent 6460 Triple Quadrupole LC/MS System using a Waters Acquity BEH C18 column (2.1 × 100 mm, […]). For the detection of pyrrole-protein adducts, the mobile phase of water containing 0.1% formic acid (A) and acetonitrile containing 0.1% formic acid (B) was used with a gradient elution as follows: 0–5 min, 35–95% B; 5.5–6 min, 95–35% B. The flow rate was 0.3 ml/min. The injection volume was 3 μL. […] The injection volume was 5 µL. The mass spectrometer was operated in multiple reactions monitoring for data acquisition.

pyrrole-protein adducts [2] = test: Toxicokinetic study: plasma kinetic profile of pyrrole-protein adducts; assay type: in vivo, Sprague Dawley rats; details: rats; GA 50 mg/kg + RTS 30 mg/kg vs RTS group
Procedure: For the toxicokinetic study, jugular vein cannulation was performed on rats on the day before drug administration. The right jugular vein was cannulated with a polyethylene tube (0.4 mm i.d. × 0.8 mm o.d., SIMS Portex, United Kingdom) for blood sampling. The rats were maintained in individual metabolic cages and fasted overnight with free access to water. […] Saline (0.2 ml) containing 25 units of heparin/mL was injected after each blood sampling for compensation of blood withdrawal. The blood samples were then centrifuged at 3,000 x g for 30 min, and plasma samples were harvested and stored at −20°C until use.
The pyrrole-protein adducts were measured according to our previously developed method ([Lin et al., 2011]; [Ruan et al., 2014]). Briefly, 50 mg liver or 100 µL serum/plasma was mixed with acetone and centrifuged at 900 x g for 10 min. […] After centrifuging at 20,000 x g for 30 min, the supernatants were collected and analyzed by LC-MS/MS according to our previously developed methods ([Ma et al., 2019]; [He et al., 2021a]; [Ma et al., 2021]). […]
Data are expressed as mean ± SD. […] Toxicokinetic parameters were calculated by noncompartmental methods using WinNonlin version 4.0 (Pharsight, Mountain View, CA, United States). […] The inhibition constant (K i ) value of GA was determined by the secondary Lineweaver-Burk plots. […]

rat CYP3A1 = test: Enzymatic kinetic study with nifedipine in rat liver microsomes; assay type: biochemical
Procedure: The mixture was pre-incubated at 37°C for 15 min. […] The supernatant was filtered through a 0.22 µm membrane filter before the LC-MS/MS analysis.
Data are expressed as mean ± SD. The Student’s t test was used for the comparison between two groups. The one-way ANOVA followed with a post hoc Bonferroni’s multiple comparison test was used for the comparison among multiple groups. Toxicokinetic parameters were calculated by noncompartmental methods using WinNonlin version 4.0 (Pharsight, Mountain View, CA, United States). The enzyme kinetic parameters were estimated from the best fit line using least-squares linear regression of the inverse substrate concentration versus the inverse velocity (Lineweaver-Burk plots), and the mean values were used to calculate the Km and Vmax. […] The statistical significance was set as ^* p < 0.05, ^** p < 0.01 or ^*** p < 0.001.

[3] = multiple dose (EX 500 mg/kg/day or GA 50 mg/kg/day, 5 consecutive days) + RTS 40 mg/kg, 48 h after last dosing
[4] = single dose (EX 500 mg/kg or GA 50 mg/kg) + RTS 40 mg/kg, 48 h after last dosing
[5] = multiple treatment (EX 500 mg/kg or GA 50 mg/kg) + RTS
[6] = single treatment (EX 500 mg/kg or GA 50 mg/kg) + RTS

## CC1(C)[C@@H](O)CC[C@]2(C)[C@H]3C(=O)C=C4[C@@H]5C[C@@](C)(C(=O)O)CC[C@]5(C)CC[C@@]4(C)[C@]3(C)CC[C@@H]12 [GA, 18β-glycyrrhetinic acid]
RTS-induced liver damage; EX, GA or RTS alone
  Apoptotic bodies: 0
  Central vein endothelial damage: 0
  Coagulative necrosis: 0
  Overall (sum of the scores from all individual parameters): 0
  Sinusoid fibrosis: 0
  Sinusoidal dilation: 0
  Sinusoidal hemorrhage: 0
  Subendothelial fibrosis: 0
  Subendothelial hemorrhage: 0
RTS-induced liver damage; both single and multiple doses + RTS
  RTS-induced hemorrhage and necrosis: significantly ameliorated
RTS-induced liver damage; [3]
  Apoptotic bodies: 0
  Central vein endothelial damage: 1
  Coagulative necrosis: 0
  Overall (sum of the scores from all individual parameters): 2-5
  Sinusoid fibrosis: 0
  Sinusoidal dilation: 1-2
  Sinusoidal hemorrhage: 0-1
  Subendothelial fibrosis: 0
  Subendothelial hemorrhage: 0-1
RTS-induced liver damage; [4]
  Apoptotic bodies: 0
  Central vein endothelial damage: 1
  Coagulative necrosis: 1
  Overall (sum of the scores from all individual parameters): 6-7
  Sinusoid fibrosis: 0
  Sinusoidal dilation: 2
  Sinusoidal hemorrhage: 1
  Subendothelial fibrosis: 0
  Subendothelial hemorrhage: 1-2
RTS-induced liver damage; substance alone
  histopathological examination of liver: No obvious liver damage
pyrrole-protein adducts [1]; [5]
  reduction of pyrrole-protein adducts in liver: 32.5%
  reduction of pyrrole-protein adducts in plasma: 56.5%
pyrrole-protein adducts [1]; [6]
  reduction of pyrrole-protein adducts in liver: 30.3%
  reduction of pyrrole-protein adducts in plasma: 50.8%
pyrrole-protein adducts [2]
  reduction of AUC0–1440min of pyrrole-protein adducts: 16.2%
Rat CYP3A1; GA 10 µM
  Lineweaver-Burk Slope: 1.424±0.040
  Lineweaver-Burk Y-intercept when X=0.0: 0.174±0.017
  Vmax of nifedipine metabolism: 6.326±0.079 nmol/min/mg protein
Rat CYP3A1; GA 25 µM
  Lineweaver-Burk Slope: 2.671±0.041
  Lineweaver-Burk Y-intercept when X=0.0: 0.144±0.018
  Vmax of nifedipine metabolism: 6.586±0.083 nmol/min/mg protein
Rat CYP3A1; GA 50 µM
  Lineweaver-Burk Slope: 4.916±0.064
  Lineweaver-Burk Y-intercept when X=0.0: 0.137±0.028
  Vmax of nifedipine metabolism: 6.473±0.146 nmol/min/mg protein
